Results as given in patent publication US20170183318A1, “AMIDE COMPOUNDS, METHODS FOR PREPARATION, AND USE THEREOF AS AGENTS FOR THE TREATMENT AND PREVENTION OF DISEASES CAUSED BY RNA- AND/OR DNA-CONTAINING VIRUSES, AND CONCOMITANT DISEASES” (OBSCHESTVO S OGRANICHENNOI OTVETSTVENNOSTIYU …, priority 2014, published 2017).
Like-named read-outs stand apart in the source and are kept apart here.

Experiments:
[1] = Rat model of nasopharyngitis induced by formalin (nasal mucosa changes, cell elements in nasal lavage); type: in vivo; conditions: Wistar rats, 18 mg/kg for 3 days; for Mucous membrane of nasal passages: Without changes (number of animals): number of animals out of n = 10, control 0 of 20; for Mucous membrane of nasal passages: Discharge mucus from the nasal passages (number of animals): number of animals out of n = 10, control 20 of 20
Protocol: Nasopharyngitis was induced by intranasal administration of formalin to each nasal passage of rats.
The administration of formalin to the nasal passages of rats leads to the dissemination of inflammation to adjacent tissues, resulting in a clinical pattern similar to the symptoms of nasopharyngitis in a human.
After an acclimatization period, the following groups were formed: • intact animals administered intragastrically a physiological solution in an amount of 0.2 ml, without induction of nasopharyngitis; • a control group consisted of animals administered intragastrically a physiological solution in an amount of 0.2 ml for 3 days after induction of nasopharyngitis; and • animals administered the studied compounds at a dose of 18 mg/kg for 3 days after induction of nasopharyngitis.
Clinical observation of each animal was performed every day at least twice daily.
The caused pathology was characterized by hyperplasia, increased number of caliciform cells, pronounced infiltration of mononuclear cells and leucocytes, and mucus hyperproduction by submucosal glands.
After euthanasia, the inflammation pattern in the nasal passages and throat was studied in each group of animals. The nasal passages were washed with 5 mL of physiological solution and the score of cell elements were counted in 1 μL.

[2] = system: Sendai strain of parainfluenza virus; test: Antiviral activity against parainfluenza virus in mice (mortality); type: in vivo, white outbred mice; conditions: Mus musculus, po, 336 h, 10LD50 intranasally, 30 mg/kg orally once daily 24-120 h after infection, 14 days observation, 20 mice per group, virus control 75.0
Protocol: In the study the Sendai strain of parainfluenza virus was used. White outbred mice weighing 10-12 g were infected intranasally with the Sendai strain of parainfluenza virus adapted to mouse lungs under brief ether anesthesia in a volume of 0.05 ml/mouse. The infectious dose of the virus that caused 70-80% mortality in mice was 10LD50. Each group used in the experiment comprised 20 animals. Intact animals served as control and were hold in a separate room under the same conditions as the experimental animals. The antiviral activity of the compounds of general formula I was studied by oral administration of the compounds to infected mice once daily at a dose of 30 mg/kg/mouse 24, 48, 72, 96, and 120 hours after infection of the animals with the virus. The mice of the control group were administered placebo (0.2 mL of physiological solution) under the same conditions. The animals were monitored for 14 days after infection by registration the mouse death in the groups.
Each animal was subjected to once-daily observation. The observation included the assessment of general behavior and body condition of animals. In days of administration of preparations, the observation was conducted before administration of a preparation in a certain time and about two hours after administration. The animals were handled according to the International Standards.
The activity of the compounds was evaluated by comparing mortality rates in the groups of animals administered a preparation and placebo.

[3] = system: Coxsackie A2 virus (strain HCXV A2); test: Antiviral activity against Coxsackie virus in vivo (mortality and life expectancy of infected mice); conditions: for inhibition in vivo at 30 mg/kg / mortality at 30 mg/kg: Mus musculus, po; for inhibition in vivo at 30 mg/kg: 168 h, read-out: Protective index (%); for mortality at 30 mg/kg: 360 h, read-out: Total mortality, %; for Average life expectancy (days), Compared with control: difference vs virus control; for Average life expectancy (days), Relative: mice infected with 10LD50 HCXV A2
How it was run: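 White mice (6–7 g), 14–15 per group, infected i.m. with 10LD50 of HCXV A2; compounds 30 mg/kg orally once daily for 7 days from 24 h post-infection, saline placebo. Mortality and weight recorded daily over 15 days versus untreated infected group.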

[4] = system: human virus hRSV; test: Antiviral activity against mouse-adapted RS virus (body weight; viral titer in lungs titrated in Hep-2 cells); type: in vivo, mice; conditions: compounds 30 mg/kg, Ribavirin 40 mg/kg, orally once daily for 5 days, n = 6
Protocol: Antiviral effectiveness of the chemical compounds against RSV in an experimental murine model in vivo was determined for human virus hRSV that was previously adapted to the growth in mouse lungs. The animals were infected with the virus at a dose of 0.5 log TCID50 intranasally under brief ether anesthesia in a volume of 0.05 ml/mouse. The studied compounds were administered orally once daily for 5 days according to the treatment regimen at a dose of 30 mg/kg. The first administration was made 24 hours after infection. Normal saline solution was administered to mice as placebo. Intact animals served as a negative control and were hold in a separate room under the same conditions as the experimental animals. Each experimental group comprised 12 animals.
The antiviral activity of the studied compounds was determined by the efficiency in the prevention of weight loss and by suppression of the reproduction of hRSV in the mouse lungs by measuring a viral titer in the experimental groups relative to the control on days 5 and 7 after infection.
In addition, the therapeutic action of the compounds of general formula I was determined by their ability to suppress the reproduction of hRSV in the mouse lungs on days 5 and 7 after infection. The viral titer was determined by the titration of a 10% lung suspension in Hep-2 cell culture. The result was registered 2 days after the incubation at 37° C. by TCID.

[5] = 30 mg/kg orally once daily for 7 days, vs virus control
[6] = 30 mg/kg orally once daily for 7 days

Compound | Mucous membrane of nasal passages: Without changes (number of animals) [1] | Mucous membrane of nasal passages: Discharge mucus from the nasal passages (number of animals) [1] | mortality at 30 mg/kg [2] [%] | inhibition in vivo at 30 mg/kg [3, 5] [%] | mortality at 30 mg/kg [3] [%] | Average life expectancy (days), Compared with control [3, 6] | Average life expectancy (days), Relative [3, 6] [days] | inhibition in vivo at 30 mg/kg [3] [%] | Body weight of the mice on day 5 after infection with hRSV (M ± SD) ([4]; day 5) | Body weight of the mice on day 7 after infection with hRSV (M ± SD) ([4]; day 7)
O=C(O)CCCC(=O)NCCCc1c[nH]cn1 [Compound 118] | 5 | 5 | 30 |  |  |  |  |  |  | 
CC(Cc1cnc[nH]1)NC(=O)CCCC(=O)O (stereo not shown) [Compound 115] | 3 | 7 | 30 |  |  |  |  |  |  | 
O=C(O)CCCC(=O)NCCCc1cccs1 [Compound 34] | 3 | 7 | 15 | 22.2 | 50 | +8.3 days | 20.5 |  |  | 
CC(C)N(CCc1cnc[nH]1)C(=O)CCCC(=O)O [Compound 141] | 4 | 6 | 40 |  |  |  |  |  |  | 
O=C(O)CCCC(=O)NC(Cc1c[nH]cn1)C(=O)O (stereo not shown) [Compound 251] | 4 | 6 | 35 |  | 42.9 | +10.0 days | 22.2 | 33.3 |  | 
O=C(O)CCCC(=O)NCCC1CCCCN1 (stereo not shown) [Compound 6] | 4 | 6 | 25 |  |  |  |  |  | 16.47 ± 0.26 | 17.02 ± 0.29
O=C(O)CCCC(=O)NCCC1CCCN1 (stereo not shown) [Compound 2] | 3 | 7 | 35 | 55.6 | 28.6 | +20.1 days | 32.3 |  |  | 
Cc1csc(CCNC(=O)CCCC(=O)O)n1 [Compound 197] | 6 | 4 | 25 |  | 42.9 | +11.2 days | 22.2 | 33.3 |  | 
O=C(O)CCCC(=O)NCCc1nc2ccccc2s1 [Compound 275] | 3 | 7 | 40 | 40 | 42.9 | +9.5 days | 22.4 |  |  | 
